Data reported in US4839358A, “Alpha-mercaptomethyl-benzene propanamides, pharmaceutical compositions and use” (Roussel Uclaf, priority 1987, dated 1989).
pIC50: −log10 of the molar value.

Columns and labels:
[1] = target: T1, Enkephalinase (Rattus norvegicus, UniProt P07861); assay: Determination of the Inhibiting Effect of Enkephalinase (hydrolysis of succinyl-Ala-Ala-Phe-amino-methylcoumarine, fluorescence); type: biochemical; settings: rat renal membrane; substrate 40 μM; pH 7.5; 37° C., 30 minutes; read-out: IC50 (concentration which inhibits the hydrolysis of the substrate by 50%)
T1 construct: from tissue; host or cells: rat kidney membranes (15,000 g particulate fraction, solubilised with octyl beta-D-glucopyranoside, 100,000 g supernatant)
T1 sequence (P07861 1-750): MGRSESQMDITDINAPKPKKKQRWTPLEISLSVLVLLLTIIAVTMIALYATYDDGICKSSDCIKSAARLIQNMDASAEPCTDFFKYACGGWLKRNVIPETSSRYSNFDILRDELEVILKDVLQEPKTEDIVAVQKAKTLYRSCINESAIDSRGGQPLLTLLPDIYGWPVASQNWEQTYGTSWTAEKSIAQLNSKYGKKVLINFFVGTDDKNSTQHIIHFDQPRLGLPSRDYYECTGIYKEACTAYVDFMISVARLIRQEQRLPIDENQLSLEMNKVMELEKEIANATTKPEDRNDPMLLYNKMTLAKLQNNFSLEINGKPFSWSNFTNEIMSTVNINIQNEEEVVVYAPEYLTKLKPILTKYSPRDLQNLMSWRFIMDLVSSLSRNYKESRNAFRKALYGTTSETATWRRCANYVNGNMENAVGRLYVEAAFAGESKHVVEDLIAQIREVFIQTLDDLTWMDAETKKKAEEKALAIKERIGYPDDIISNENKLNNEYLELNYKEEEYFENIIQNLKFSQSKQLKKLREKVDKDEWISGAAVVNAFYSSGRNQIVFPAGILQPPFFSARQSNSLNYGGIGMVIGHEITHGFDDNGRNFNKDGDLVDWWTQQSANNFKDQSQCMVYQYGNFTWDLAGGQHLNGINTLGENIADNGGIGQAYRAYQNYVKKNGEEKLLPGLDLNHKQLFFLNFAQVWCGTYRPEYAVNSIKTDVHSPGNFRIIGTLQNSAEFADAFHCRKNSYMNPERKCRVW
Description: The activity of enkephalinase was determined starting with a piece of renal membrane of a rat. The kidneys were removed on ice and homogenized in HEPES 0.05M buffer pH 7.5 containing magnesium chloride (50 times the volume). After a first centrifuging at 1,500 g, the particular fraction was obtained after centrifuging at 15,000 g for 20 minutes. The residue was then washed and suspended in HEPES buffer and kept at -20 C. A part of this membrane preparation was placed in the presence of octyl β-D-glucopyranoside (50 mM in final centrifuging) for 15 minutes 15 4° C. After centrifuging at 100,000 g for one hour, the supernatant was removed and frozen by aliquots at -20° C. The concentration in proteins was determined by the method with Comassie blue.
An aliquot of the protein fraction so prepared was pre-incubated at 25° C. for 10 minutes in HEPES 0.05M buffer pH 7.5 or in the presence of the test product. The substrate added was a non-natural enkephaline of the formula succinyl-Ala-Ala-Phe-amino-methylcoumarine (reference 1) (40 μM in final concentration): the incubation was continued at 37° C. for 30 minutes. The reaction was stopped by heating to 95° C. for 5 minutes and each incubate was centrifuged. A solution of aminopeptidase M (4 μM in final concentration) and of thiorphan (reference 2) (10^-5 M) was added to the supernatant and the mixture was taken to 37° C. for one hour. The reaction was stopped as previously described and the fluorescence of the 7-aminomethylcoumarineso produced was determined. The effect of the products under test was detemined by calculating the IC50 as the concentration which inhibits the hydrolysis of the substrate by 50%.

[2] = Test of Anti-depressive Activity (duration of immobility, forced swimming); type: in vivo, Sprague Dawley rats; settings: 20 mg/kg × 3, oral 24, 5 and 1 hour before test
Description: The tests were carried out on groups of 5 Sprague Dawley rats and the inexperienced animals were placed for 15 minutes in a vertical perspex cylinder (diameter: 18 cm, height: 40 cm) containing water at 25° C. to a height of 15 cm (initial swimming test). They were then dried for 15 minutes in an enclosure heated to 32° C. 24 hours later, they were replaced in the cylinder filled with water and the total duration of immobility was measured for 5 minutes. The compound was administered orally successively 24, 5 and 1 hour before the test. The first administration took place immediately after the initial swimming test, just before replacing the animals in their breeding box. The average of the groups treated were compared with those of the control group by the Dunnett test.

[3] = Analgesic activity: Stretching Caused by Acetic Acid in Mice; type: in vivo; settings: Mus musculus, 0.5 h; oral, half-an-hour before 1% acetic acid 10 ml/kg intraperitoneal; 15 minutes observation; read-out: AD50 (active dose which enabled a reduction of 50% of the number of stretchings as compared with control animals)
Description: The test used was based on the fact reported by R. KOSTER et al [Fed. Proc. (1959), Vol. 18, p. 412] in which the intraperitoneal injection of acetic acid caused in mice repeated stretching and twisting movements which can persist for more than 6 hours. The analgesics prevent or diminish this syndrome which can be considered as the exteriorization of a diffuse abdominal pain. A 1% solution of acetic acid in water was used, administered at a rate of 10 ml/kg. The product studied was administered by oral route half-an-hour before injection of the acetic acid, the mice being without food for a minimum 6 hours. The stretchings were observed and counted for each mouse for an observation period of 15 minutes. The results were expressed as the AD50, that is to say, the active dose which enabled a reduction of 50% of the number of stretchings as compared with control animals. The AD50 found for the compound of Example 2 was 80 mg/kg.

| pIC50 [1] | SMILES | Duration of immobility ([2]; 5 minutes measured, control 232 ± 7) | Duration of immobility, % variation ([2]; versus control group) | ED50 [3] |
| --- | --- | --- | --- | --- |
| 6.66 | O=C(NN1CCOCC1)C(CS)Cc1ccccc1 (stereo not drawn) [Example 2, α-mercaptomethyl-N-(4-morpholinyl)-benzene propanamide] | 138 ± 20 s | -41% | 80 mg/kg |
| 6.41 | O=C(NN1CCCCCC1)C(CS)Cc1ccccc1 (stereo not drawn) [Example 8, N-(hexahydro-1H-azepinyl)-α-(mercaptomethyl)-benzene propanamide] | – | – | – |
| 7.15 | O=C(NN1CCCC1)C(CS)Cc1ccccc1 (stereo not drawn) [Example 10, α-mercaptomethyl-N-(1-pyrrolidinyl)-benzene propanamide] | – | – | – |
| 6.46 | O=C(NN1CCSCC1)C(CS)Cc1ccccc1 (stereo not drawn) [Example 12, α-mercaptomethyl-N-(tetrahydro-2H-1,4,-thiazin-4-yl)-benzene propanamide] | – | – | – |
